± gives the expanded uncertainty stated by the source.

The conditions of this data set: 101.33 kPa, Liquid.

On to `CCCCBr` [1-bromobutane], for which the mass density runs as follows: (253.15 K) 1326.5 ± 1.7 kg/m3; (263.15 K) 1313.8 ± 1.6 kg/m3; (273.15 K) 1300.5 ± 1.5 kg/m3; (283.15 K) 1286.4 ± 1.4 kg/m3; (298.15 K) 1265.7 ± 1.3 kg/m3; (323.15 K) 1229.5 ± 1.5 kg/m3.
Turning to `CCCCCCCCCCCCBr` [1-bromododecane], the mass density runs as follows: (273.15 K) 1056.5 ± 1.3 kg/m3; (283.15 K) 1048.5 ± 1.2 kg/m3; (293.15 K) 1039.8 ± 1.1 kg/m3; (298.15 K) 1035.6 ± 1.2 kg/m3; (323.15 K) 1014 ± 1.4 kg/m3; (343.15 K) 996.2 ± 1.5 kg/m3. In addition, the mass density by setting is: (363.15 K) 979 ± 1.7 kg/m3; (393.15 K) 952.4 ± 1.9 kg/m3; (423.15 K) 923.7 ± 2.2 kg/m3.
On to `CCCCCCCBr` [1-bromoheptane], for which the mass density is, setting by setting: (243.15 K) 1191 ± 1.8 kg/m3; (263.15 K) 1169.6 ± 1.6 kg/m3; (273.15 K) 1159.2 ± 1.4 kg/m3; (283.15 K) 1148.7 ± 1.3 kg/m3; (298.15 K) 1132.9 ± 1.3 kg/m3; (323.15 K) 1106 ± 1.5 kg/m3. Besides, the mass density reads like this: (343.15 K) 1084.5 ± 1.6 kg/m3; (393.15 K) 1026.6 ± 2 kg/m3.
In the case of `CCCCCCBr` [1-bromohexane], the mass density (253.15 K) was found to be 1218 ± 1.7 kg/m3; the mass density (273.15 K) was 1195.3 ± 1.5 kg/m3; the mass density (283.15 K) was found to be 1183.8 ± 1.3 kg/m3; the mass density (298.15 K) is listed as 1166.8 ± 1.3 kg/m3; the mass density (323.15 K) was determined as 1137.3 ± 1.5 kg/m3; the mass density (343.15 K) turned out to be 1113.7 ± 1.6 kg/m3. Also, the mass density by setting is: (363.15 K) 1090.8 ± 1.8 kg/m3; (383.15 K) 1066.1 ± 1.9 kg/m3; (403.15 K) 1040.9 ± 2.1 kg/m3.
In the case of `CCCCCCCCBr` [1-bromooctane], the mass density came to 1151.1 ± 1.7 kg/m3 (253.15 K); 1140.9 ± 1.5 kg/m3 (263.15 K); 1131.2 ± 1.4 kg/m3 (273.15 K); 1121.2 ± 1.3 kg/m3 (283.15 K); 1111 ± 1.2 kg/m3 (293.15 K); 1106 ± 1.3 kg/m3 (298.15 K). Moreover, the mass density is, setting by setting: (323.15 K) 1080.6 ± 1.5 kg/m3; (343.15 K) 1060.5 ± 1.6 kg/m3; (363.15 K) 1039.5 ± 1.8 kg/m3; (393.15 K) 1008.4 ± 2 kg/m3.
In the case of `CCCCCBr` [1-bromopentane], the mass density is, setting by setting: (253.15 K) 1260.3 ± 2 kg/m3; (263.15 K) 1249.9 ± 1.9 kg/m3; (273.15 K) 1239.6 ± 1.8 kg/m3; (293.15 K) 1214.9 ± 1.6 kg/m3; (298.15 K) 1208.5 ± 1.6 kg/m3; (323.15 K) 1177.1 ± 1.8 kg/m3. Further, the mass density reads like this: (343.15 K) 1151 ± 1.9 kg/m3; (363.15 K) 1124.7 ± 2 kg/m3; (383.15 K) 1097.4 ± 2.2 kg/m3; (393.15 K) 1083.4 ± 2.2 kg/m3.
For `CCCBr` [1-bromopropane], the mass density runs as follows: (243.15 K) 1431.1 ± 1.9 kg/m3; (253.15 K) 1415.4 ± 1.8 kg/m3; (263.15 K) 1400.3 ± 1.7 kg/m3; (273.15 K) 1385.3 ± 1.6 kg/m3; (283.15 K) 1369.4 ± 1.5 kg/m3; (298.15 K) 1344.5 ± 1.4 kg/m3.

The term mass density denotes the mass of a sample divided by its volume.

For the origin of these results see the NIST ThermoML archive (doi:10.1021/je700015t).
